Data reported in ChEMBL document CHEMBL3301361, “Experimental in vitro DMPK and physicochemical data on a set of publicly disclosed compounds”.
Values after ≈ are worked out from the molar mass of the structure shown.

Tests used:
[1] = physchem; details: octan-1-ol/water
[2] = physchem; details: pH 7.4 buffer

Structure (SMILES)	logD ([1]; pH 7.4, LogD7.4)	solubility thermodynamic [2] [µM]	logD ([1]; pH 7.4)
COc1cc(OC2CCNCC2)ccc1Nc1ncc(Cl)c(-c2cnc3ccccn23)n1	1.8	30.9 (≈ 13.9 µg/mL)	–
COc1ccc(Nc2nccc(-c3cnc(C)n3C(C)C)n2)cc1	3.43	209 (≈ 67.6 µg/mL)	–
CCc1ccc(CCOc2ccc(CC3SC(=O)NC3=O)cc2)nc1 (stereo unspecified) [PIOGLITAZONE]	2.8	2 (≈ 0.713 µg/mL)	–
COc1cc(C(=O)N2CCOCC2)ccc1Nc1ncc(Cl)c(-c2cnc3ccccn23)n1	3.4	1.6 (≈ 0.744 µg/mL)	–
CNc1ncc(C(=O)c2ccccc2)s1	2.36	724 (≈ 158 µg/mL)	–
Cc1cc(=O)oc2cc3c(cc12)CCCN3	–	13.8 (≈ 2.97 µg/mL)	2.7
CSCCC(NC(=O)c1sccc1Cl)c1nc2ccccc2[nH]1 (stereo unspecified)	3.69	25.7 (≈ 9.4 µg/mL)	–
CCCOc1nc(N2CCC[C@@H](CC(=O)O)C2)ccc1C(=O)NC1CCCCC1	2.81	550 (≈ 222 µg/mL)	–
CCOC(=O)c1ccc(OCCC2(C#N)CCN(c3ccc(C)nn3)CC2)cc1	3.54	58.9 (≈ 23.2 µg/mL)	–
COc1ccc(-c2csc(NC(=O)c3c(C)noc3C)n2)cc1OC	–	2 (≈ 0.719 µg/mL)	3.16
COc1cc2ncnc(Nc3cccc(Cl)c3F)c2cc1CN(C)C1(C(N)=O)CCN(C)CC1	2.16	282 (≈ 137 µg/mL)	–
Cc1sc2ncnc(SCC(=O)N3CCCC3)c2c1C	2.89	100 (≈ 30.7 µg/mL)	–
CCOC(=O)c1ccc(OCC2CN(c3ccc(C)nn3)C2)cc1	3.1	141 (≈ 46.3 µg/mL)	–
Nc1cc(-c2ccccc2)ncn1	1.91	372 (≈ 63.6 µg/mL)	–
CN(C)CC(O)COc1ccc(Nc2nccc(Nc3cccc(Cl)c3)n2)cc1 (stereo unspecified)	2.5	120 (≈ 49.8 µg/mL)	–
N#Cc1nc(N2CCOCC2)nc(N2CCOCC2)n1	–	77.6 (≈ 21.4 µg/mL)	1.51
COc1cc2ncnc(Nc3ccc(Cl)c(O)c3)c2cc1OC	3.3	1.4 (≈ 0.464 µg/mL)	–
CC(Nc1ncnc2ccccc12)c1ccccc1 (stereo unspecified)	3.4	123 (≈ 30.7 µg/mL)	–
CSc1ccc(OCc2ccccc2)c(C(=O)Nc2ccc(C(=O)O)cn2)c1	1.6	200 (≈ 78.7 µg/mL)	–
CCOC(=O)Nc1ccc2c(c1)N(C(=O)CCN1CCOCC1)c1ccccc1S2 [MORICIZINE]	3.1	83.2 (≈ 35.6 µg/mL)	–
O=C(N1CCN(c2ccncc2Cl)CC1)N1CCN(S(=O)(=O)c2ccc(C(F)(F)F)cc2)CC1	3.54	3.9 (≈ 2.02 µg/mL)	–
Cn1c(C#N)ccc1-c1ccc2c(c1)C(C)(C)OC(=S)N2 [TANAPROGET]	3.4	3.6 (≈ 1.07 µg/mL)	–
O=c1[nH][nH]c(=O)c2c1[nH]c1cc(Cl)cc(Cl)c12	1.02	57.5 (≈ 15.5 µg/mL)	–
C[C@H](CN(C)C(=O)CO)Oc1cccc2ncnc(Nc3ccc(OCc4ccccn4)c(Cl)c3)c12	3.22	12.6 (≈ 6.4 µg/mL)	–
C[C@@H](Oc1cccc2ncnc(Nc3ccc4c(cnn4Cc4ccccn4)c3)c12)C(=O)N1CCOCC1	2.82	95.5 (≈ 48.7 µg/mL)	–
Cc1nc(C)c(-c2ccc([C@H]3CC[C@H](CCC(=O)O)CC3)cc2)nc1C(N)=O	1.6	200 (≈ 76.1 µg/mL)	–

Structure (SMILES)	logD ([1]; pH 7.4, LogD7.4)	solubility thermodynamic [2] [µM]	logD ([1]; pH 7.4)
Cc1c(Cl)cccc1S(=O)(=O)Nc1nc(CC(=O)N2CCN(C)CC2)cs1	–	1100 (≈ 470 µg/mL)	0.57
O=C(NCc1ccncc1)c1ccc(Oc2ccc(C#C[C@@]3(O)CN4CCC3CC4)cc2)cc1	–	107 (≈ 48.6 µg/mL)	2.31
N#Cc1cnn(-c2ccccc2)c1NC(=O)CN1CCN(c2ccccc2)CC1	2.3	25.1 (≈ 9.7 µg/mL)	–
CC(C)C[C@H](NC(=O)N1CCOCC1)C(=O)N[C@H](/C=C/S(=O)(=O)c1ccccc1)CCc1ccccc1	3.4	17 (≈ 8.97 µg/mL)	–
CCCSc1nc(Oc2ccc(CC(=O)O)cc2)ccc1C(=O)NC1CCCCC1	1.79	550 (≈ 235 µg/mL)	–
Cc1ccc(-c2nn(C(C)(C)C)c3ncnc(N)c23)cc1	4.1	9.8 (≈ 2.76 µg/mL)	–
COc1cc2c(c(OC)c1OC)-c1ccc(O)cc1[C@@H](NC(C)=O)CC2 [N-ACETYLCOLCHINOL]	–	813 (≈ 290 µg/mL)	1.81
COC(=O)C1=C(C)NC(C)=C(C(=O)OCC(C)C)C1c1ccccc1[N+](=O)[O-] (stereo unspecified) [NISOLDIPINE]	3.59	2.2 (≈ 0.855 µg/mL)	–
CC(=O)c1noc(C)c1C(=O)Nc1nccs1	1.94	46.8 (≈ 11.8 µg/mL)	–
Nc1nc(-c2ccccn2)nc(N)c1Cc1ccccc1F	2.12	170 (≈ 50.1 µg/mL)	–
CS(=O)(=O)c1cccc(Nc2nccc(N(CC#N)c3c(Cl)ccc4c3OCO4)n2)c1	3.16	1.3 (≈ 0.595 µg/mL)	–
Cc1ccc2nc(NCCN)c3ncc(C)n3c2c1 [BMS-345541]	0.88	246 (≈ 62.7 µg/mL)	–
Nc1ccccc1NC(=O)c1ccc(CNc2nccc(-c3cccnc3)n2)cc1 [MOCETINOSTAT]	2.28	13.5 (≈ 5.35 µg/mL)	–
COc1ccc(C(=O)N2CCC(C(=O)c3ccc(F)cc3)CC2)cc1	2.92	21.4 (≈ 7.31 µg/mL)	–
NC1(c2ccc(-c3nc4ccn5c(=O)[nH]nc5c4cc3-c3ccccc3)cc2)CCC1 [MK-2206]	2.5	4.7 (≈ 1.92 µg/mL)	–
O=C(c1scc2c1CCCC2)N1CCCCC1	3.16	871 (≈ 217 µg/mL)	–
FC(F)(F)c1nnc2ccc(NCc3cccnc3)nn12	2.06	380 (≈ 112 µg/mL)	–
COc1ccc(-c2csc(N(CCCN3CCOCC3)C(=O)c3ccco3)n2)cc1	3.34	1.1 (≈ 0.47 µg/mL)	–
CCn1c2ccccc2c2cc(NC(=O)CN(C)C)ccc21	3.2	219 (≈ 64.6 µg/mL)	–
Cc1c[nH]c(/C=C2\C(=O)Nc3ccccc32)c1CCC(=O)O	1.2	447 (≈ 132 µg/mL)	–
COc1cc2ncnc(Nc3cccc(Cl)c3F)c2cc1CN(C)[C@@H](C)C(N)=O	3.42	42.7 (≈ 17.8 µg/mL)	–
CS(=O)(=O)c1cccc(Nc2nccc(Nc3cccc4[nH]ncc34)n2)c1	2.91	6.8 (≈ 2.59 µg/mL)	–
Cc1cc(Oc2ccnc(Nc3ccc(S(N)(=O)=O)cc3)c2)c(-c2ccccn2)nc1C	2.34	2.5 (≈ 1.12 µg/mL)	–
Nc1nc(-c2ccccc2)cs1	2.43	832 (≈ 147 µg/mL)	–
CC1(C)C(=O)N(c2ccc(SC(F)(F)F)cc2)C(=O)N1Cc1ccnc(N2CCOCC2)c1	3.73	3 (≈ 1.44 µg/mL)	–
O=CN(O)C1(CS(=O)(=O)N2CCN(c3ccc(F)cc3)CC2)CCC1	1.34	490 (≈ 182 µg/mL)	–

Structure (SMILES)	logD ([1]; pH 7.4, LogD7.4)	solubility thermodynamic [2] [µM]	logD ([1]; pH 7.4)
COC[C@H](C)Oc1cc(Oc2cc(F)cc(F)c2)cc(C(=O)Nc2ccc(C(=O)O)cn2)c1	1.36	832 (≈ 381 µg/mL)	–
COCC(=O)N1CCC(n2cc(-c3cnc(N)c(-c4nc5ccccc5o4)c3)cn2)CC1	3.4	1.9 (≈ 0.822 µg/mL)	–
O=C(c1ccc(Cl)cc1)C1CCN(C(=O)C2CC2)CC1	2.72	190 (≈ 55.6 µg/mL)	–
CC(C)Cn1cnc(-c2ccccc2)c1-c1nc2c(N)ncnc2s1	3.72	70.8 (≈ 24.8 µg/mL)	–
O=C(Nc1ccc(N2CCOCC2)cc1)c1nnc(NC(=O)C2(c3ccc(Cl)cc3)CCC2)o1	3.2	66.1 (≈ 31.9 µg/mL)	–
O=C(N[C@@H](Cc1ccc(OCCNc2nc3ccccc3[nH]2)cc1)C(=O)O)c1c(Cl)cccc1Cl	0.6	324 (≈ 166 µg/mL)	–
COCCN(c1ccnc(Nc2cc(N3CCOCC3)cc(N3CCOCC3)c2)n1)c1cc(CO)ccc1C	2.8	302 (≈ 161 µg/mL)	–
CN(C(=O)NCc1ccccc1)C1CCN(CCC(c2ccccc2)c2ccccc2)CC1	3.4	25.7 (≈ 11.3 µg/mL)	–
Cc1sc(N)nc1-c1ccccc1	2.75	955 (≈ 182 µg/mL)	–
O=C(O)c1ccccc1Cn1nnc(-c2cccc(OCc3ccc4ccccc4n3)c2)n1	2.1	7.8 (≈ 3.41 µg/mL)	–
CN(C)C/C=C/C(=O)Nc1cc2c(Nc3ccc(F)c(Cl)c3)ncnc2cc1O[C@H]1CCOC1 [AFATINIB]	3.7	93.3 (≈ 45.3 µg/mL)	–
Cc1nc(CS(=O)(=O)c2ccc(Cl)cc2)cc(N2CCOCC2)n1	1.8	224 (≈ 82.4 µg/mL)	–
CC(=O)N1CCN(c2ccc(NC(=O)c3nnc(Nc4ccccc4F)o3)cc2)CC1	2.51	6.2 (≈ 2.63 µg/mL)	–
O=C(N[C@@H](Cc1ccc(OCCc2ccc3c(n2)NCCC3)cc1)C(=O)O)c1c(Cl)cccc1Cl	0.33	107 (≈ 55.1 µg/mL)	–
NC(=O)c1sc(-c2ccsc2)cc1NS(=O)(=O)c1ccc(C(F)(F)F)cc1	2.39	4.8 (≈ 2.08 µg/mL)	–
Cc1cccc(-c2nn3c(c2-c2ccnc4ccc(C(N)=O)cc24)CCC3)n1 [GALUNISERTIB]	1.71	182 (≈ 67.2 µg/mL)	–
Nc1n[nH]c2nnc(-c3ccccc3)c(-c3ccccc3)c12	2.6	15.8 (≈ 4.54 µg/mL)	–
Nc1ccc(OCc2ccccc2)cc1 [4-BENZYLOXYANILINE]	2.2	468 (≈ 93.2 µg/mL)	–
COCCCNS(=O)(=O)c1ccc(Nc2nccc(-c3cnc4ccccn34)n2)cc1	3.41	2.4 (≈ 1.05 µg/mL)	–
Cc1cc2c(F)c(Oc3ncnn4cc(OC[C@@H](C)OC(=O)[C@H](C)N)c(C)c34)ccc2[nH]1 [BRIVANIB ALANINATE]	3.19	37.2 (≈ 16.4 µg/mL)	–
Cc1ccc(Oc2ccc(Nc3ncnc4cccc(O[C@H](C)C(=O)N(C)CCO)c34)cc2C)cn1	3.85	63.1 (≈ 30.8 µg/mL)	–
COc1cc2ncnc(Nc3cc(NC(=O)c4ccnc(N5CCOCC5)c4)ccc3C)c2cc1OCCN1CCCCC1	3.35	813 (≈ 486 µg/mL)	–
Cc1ccn2c(NC(=O)c3ccccc3)c(-c3cccs3)nc2c1	–	1.1 (≈ 0.367 µg/mL)	2.87
CN(c1ccnc(Nc2cccc(S(C)(=O)=O)c2)n1)c1cccc2[nH]ncc12	3.21	13.5 (≈ 5.33 µg/mL)	–
CN(C)c1cccc2c(S(N)(=O)=O)cccc12	1.95	23.4 (≈ 5.86 µg/mL)	–
CS(=O)(=O)n1c2ccccc2c2cc(NC(=O)CCc3ccncc3)ccc21	3.4	22.9 (≈ 9.01 µg/mL)	–
